Experimental data from ChEMBL document CHEMBL5360531, “Pyrazolone derivatives as potent and selective small-molecule SIRT5 inhibitors” (Eur J Med Chem, 2023).

Tests used:
[1] = target: T1, NAD-dependent protein deacylase sirtuin-5, mitochondrial (Homo sapiens, UniProt Q9NXA8); assay: Inhibition of human SIRT5
[2] = target: T1, NAD-dependent protein deacylase sirtuin-5, mitochondrial; assay: Inhibition of human SIRT5 by fluorescence based analysis

T1 sequence (Q9NXA8 whole entry): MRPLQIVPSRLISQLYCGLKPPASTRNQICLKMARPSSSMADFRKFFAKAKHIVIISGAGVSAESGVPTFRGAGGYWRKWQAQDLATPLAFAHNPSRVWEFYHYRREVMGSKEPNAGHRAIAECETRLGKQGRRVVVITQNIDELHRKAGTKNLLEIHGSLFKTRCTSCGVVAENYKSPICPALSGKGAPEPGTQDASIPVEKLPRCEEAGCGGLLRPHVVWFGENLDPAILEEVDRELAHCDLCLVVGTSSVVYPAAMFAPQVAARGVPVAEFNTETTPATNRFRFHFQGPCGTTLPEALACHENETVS

Row | SMILES | IC50 [1] [µM] | IC50 [2] [µM]
1 | N=C(N)NCCC[C@@H]1NC(=O)CCC(=O)NCCCC[C@@H](C(N)=O)NC(=O)[C@H](CCCCNC(=S)NCCC(=O)O)NC1=O | 2.2 | 
2 | COC(=O)c1ccc(/C=C2/C(=O)N(c3nc(-c4cccc(OC)c4)cs3)N=C2C)cc1 |  | 15.8
3 | COc1ccc(-c2csc(N3N=C(C)/C(=C\c4ccc(C(=O)O)cc4)C3=O)n2)cc1 |  | 1.82
4 | CC1=NN(c2nc(-c3ccc(Br)cc3)cs2)C(=O)/C1=C/c1ccc(Cl)cc1 |  | 12.5
5 | CC1=NN(c2nc(-c3ccccc3F)cs2)C(=O)/C1=C/c1ccc(C(=O)O)cc1 |  | 4.18
6 | CC1=NN(c2nc(-c3ccccc3F)cs2)C(=O)/C1=C/c1ccc(C#N)cc1 |  | 13.8
7 | COC(=O)c1ccc(/C=C2/C(=O)N(c3nc(-c4ccc(C(F)(F)F)cc4)cs3)N=C2C)cc1 |  | 2.84
8 | CC1=NN(c2nc(-c3ccc(C(F)(F)F)cc3)cs2)C(=O)/C1=C/c1ccc(C(=O)O)cc1 |  | 0.52
9 | COC(=O)c1ccc(/C=C2/C(=O)N(c3nc(-c4ccc(C#N)cc4)cs3)N=C2C)cc1 |  | 5.26
10 | CC1=NN(c2nc(-c3ccc(F)cc3)cs2)C(=O)/C1=C/c1ccc(Cl)cc1 |  | 6.28
11 | COC(=O)c1ccc(/C=C2/C(=O)N(c3nc(-c4cccc(F)c4)cs3)N=C2C)cc1 |  | 10.6
12 | COc1ccc(-c2csc(N3N=C(C)/C(=C\c4ccc(Cl)cc4)C3=O)n2)cc1 |  | 22.6
13 | COc1ccccc1-c1csc(N2N=C(C)/C(=C\c3ccc(C(=O)O)cc3)C2=O)n1 |  | 5.54
14 | COC(=O)c1ccc(/C=C2/C(=O)N(c3nc(-c4ccc(Cl)cc4)cs3)N=C2C)cc1 |  | 2.56
15 | CC1=NN(c2nc(-c3cccc(C)c3)cs2)C(=O)/C1=C/c1ccc(C(=O)O)cc1 |  | 4.45
16 | COC(=O)c1ccc(/C=C2/C(=O)N(c3nc(-c4cccc(C#N)c4)cs3)N=C2C)cc1 |  | 16.5
17 | CC1=NN(c2nc(-c3ccc(Cl)cc3)cs2)C(=O)/C1=C/c1ccc(Cl)cc1 |  | 7.56
18 | COC(=O)c1ccc(/C=C2/C(=O)N(c3nc(-c4ccccc4F)cs3)N=C2C)cc1 |  | 12.7

Row | SMILES | IC50 [1] [µM] | IC50 [2] [µM]
19 | CC1=NN(c2nc(-c3cccc(C#N)c3)cs2)C(=O)/C1=C/c1ccc(C(=O)O)cc1 |  | 4.16
20 | CC1=NN(c2nc(-c3ccc(F)cc3)cs2)C(=O)/C1=C/c1ccc(C(=O)O)cc1 |  | 0.85
21 | COC(=O)c1ccc(/C=C2/C(=O)N(c3nc(-c4ccccc4OC)cs3)N=C2C)cc1 |  | 20.6
22 | COC(=O)c1ccc(/C=C2/C(=O)N(c3nc(-c4ccc(C)cc4)cs3)N=C2C)cc1 |  | 6.54
23 | COC(=O)c1ccc(/C=C2/C(=O)N(c3nc(-c4ccc(O)cc4)cs3)N=C2C)cc1 |  | 12.8
24 | COC(=O)c1ccc(/C=C2/C(=O)N(c3nc(-c4ccc(F)cc4)cs3)N=C2C)cc1 |  | 5.83
25 | COc1ccc(-c2csc(N3N=C(C)/C(=C\c4ccc(C)cc4)C3=O)n2)cc1 |  | 36.8
26 | COc1cccc(-c2csc(N3N=C(C)/C(=C\c4ccc(C(=O)O)cc4)C3=O)n2)c1 |  | 3.08
27 | COC(=O)c1ccc(/C=C2/C(=O)N(c3nc(-c4cccc(C)c4)cs3)N=C2C)cc1 |  | 20.5
28 | CC1=NN(c2nc(-c3ccc(C)cc3)cs2)C(=O)/C1=C/c1ccc(C(=O)O)cc1 |  | 1.28
29 | COC(=O)c1ccc(/C=C2/C(=O)N(c3nc(-c4ccc(OC)cc4)cs3)N=C2C)cc1 |  | 10.2
30 | CC1=NN(c2nc(-c3ccc(O)cc3)cs2)C(=O)/C1=C/c1ccc(C(=O)O)cc1 |  | 1.92
31 | CC1=NN(c2nc(-c3cccc(F)c3)cs2)C(=O)/C1=C/c1ccc(C(=O)O)cc1 |  | 1.86
32 | CC1=NN(c2nc(-c3ccc(C#N)cc3)cs2)C(=O)/C1=C/c1ccc(C(=O)O)cc1 |  | 1.05
33 | COC(=O)c1ccc(/C=C2/C(=O)N(c3nc(-c4ccc(Br)cc4)cs3)N=C2C)cc1 |  | 4.36
34 | COC(=O)c1ccc(/C=C2/C(=O)N(c3nc(-c4cccc(C(F)(F)F)c4)cs3)N=C2C)cc1 |  | 2.28
35 | CC1=NN(c2nc(-c3ccc(Br)cc3)cs2)C(=O)/C1=C/c1ccc(C(=O)O)cc1 |  | 1.72
